In patent EP4620956A1, “PARP1 INHIBITORS” (Zhejiang Yangli Pharmaceutical Technology Co., Ltd., priority 2022, dated 2024):

What was measured:
MDA-MB-436 = assay: Anti-proliferative activity (CellTiter-Glo, 7 days), MDA-MB-436; type: cell-based, human; settings: Homo sapiens, MDA-MB-436, 168 h, read-out: MDA-MB-436 IC50
MDA-MB-231 = assay: Anti-proliferative activity (CellTiter-Glo, 7 days), MDA-MB-231; type: cell-based, human; settings: Homo sapiens, MDA-MB-231, 168 h, read-out: MDA-MB-231 IC50
PARP3 = target: T1, PARP3 (Homo sapiens, UniProt Q9Y6F1); assay: Inhibition of PARP3 enzyme activity (chemiluminescence); type: biochemical; settings: ratio relative to the PARP1 enzyme activity
T1 construct: purchased BPS 80503
T1 sequence (Q9Y6F1 1-533): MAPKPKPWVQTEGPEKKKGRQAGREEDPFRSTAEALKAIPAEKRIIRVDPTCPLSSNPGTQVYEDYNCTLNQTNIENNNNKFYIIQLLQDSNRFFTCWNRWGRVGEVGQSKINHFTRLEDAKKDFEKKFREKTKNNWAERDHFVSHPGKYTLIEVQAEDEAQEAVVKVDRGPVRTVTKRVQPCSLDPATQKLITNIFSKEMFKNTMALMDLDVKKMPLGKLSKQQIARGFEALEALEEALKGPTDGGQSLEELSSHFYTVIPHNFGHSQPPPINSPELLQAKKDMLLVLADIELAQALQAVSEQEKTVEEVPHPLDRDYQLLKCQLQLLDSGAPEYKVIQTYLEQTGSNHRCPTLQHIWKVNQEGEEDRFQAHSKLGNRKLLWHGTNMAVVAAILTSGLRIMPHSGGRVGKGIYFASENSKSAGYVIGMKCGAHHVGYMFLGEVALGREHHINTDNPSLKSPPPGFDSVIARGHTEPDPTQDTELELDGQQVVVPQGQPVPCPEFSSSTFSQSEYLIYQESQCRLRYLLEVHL

PARP2 = target: T2, PARP2 (Homo sapiens, UniProt Q9UGN5); assay: PARP2-DNA trapping, fluorescence polarization (FP); type: biochemical
T2 construct: purchased BPS 80502
T2 sequence (Q9UGN5 whole entry): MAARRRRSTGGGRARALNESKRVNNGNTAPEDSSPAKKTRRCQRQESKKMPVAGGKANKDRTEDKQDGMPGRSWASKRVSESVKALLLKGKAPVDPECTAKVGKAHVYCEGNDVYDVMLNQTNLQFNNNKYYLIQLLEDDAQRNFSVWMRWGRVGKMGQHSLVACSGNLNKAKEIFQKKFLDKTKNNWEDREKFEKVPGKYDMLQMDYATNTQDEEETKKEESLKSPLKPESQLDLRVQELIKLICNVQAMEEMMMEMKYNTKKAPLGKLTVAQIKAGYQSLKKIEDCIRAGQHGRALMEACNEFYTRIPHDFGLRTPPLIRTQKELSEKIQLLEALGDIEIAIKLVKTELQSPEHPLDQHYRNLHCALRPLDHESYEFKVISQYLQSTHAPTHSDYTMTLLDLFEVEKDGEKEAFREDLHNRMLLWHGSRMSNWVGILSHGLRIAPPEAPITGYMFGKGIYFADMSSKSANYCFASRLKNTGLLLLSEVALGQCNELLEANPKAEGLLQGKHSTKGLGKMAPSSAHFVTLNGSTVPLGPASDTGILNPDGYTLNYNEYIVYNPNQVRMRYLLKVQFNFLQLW

IC50 (MDA-MB-436): 298 nM | IC50 (MDA-MB-231): 9.52 µM | PARP3 multiple vs PARP1 (PARP3): 47 | Bottom (PARP2; PARP2, 0.25 hour): -5.4 | Hillslope (PARP2; PARP2, 0.25 hour): 1.2 | Top (PARP2; PARP2, 0.25 hour): 107.8 | Bottom (PARP2; PARP2, 0.5 hour): -2.7 | Hillslope (PARP2; PARP2, 0.5 hour): 1.4 | Top (PARP2; PARP2, 0.5 hour): 109.9 | Bottom (PARP2; PARP2, 1 hour): 2.8 | Hillslope (PARP2; PARP2, 1 hour): 2.0 | Top (PARP2; PARP2, 1 hour): 109.4 | Bottom (PARP2; PARP2, 2 hour): -2.0 | Hillslope (PARP2; PARP2, 2 hour): 2.2 | Top (PARP2; PARP2, 2 hour): 107.9 | Bottom (PARP2; PARP2, 4 hour): -1.4 | Hillslope (PARP2; PARP2, 4 hour): 1.9 | Top (PARP2; PARP2, 4 hour): 107.2 | Bottom (PARP2; PARP2, 8 hour): 1.8 | Hillslope (PARP2; PARP2, 8 hour): 2.1 | Top (PARP2; PARP2, 8 hour): 106.5 | Bottom (PARP2; PARP2, 24 hour): 0.3 | Hillslope (PARP2; PARP2, 24 hour): 2.0 | Top (PARP2; PARP2, 24 hour): 109.8 | Bottom (PARP2; PARP2, 48 hour): -1.6 | Hillslope (PARP2; PARP2, 48 hour): 1.8 | Top (PARP2; PARP2, 48 hour): 110.6
Compound: O=C(c1cc(Cc2n[nH]c(=O)c3ccccc23)ccc1F)N1CCN(C(=O)C2CC2)CC1 [Olaparib, olaparib]
